In article PMC5999033 (European journal of medicinal chemistry, 2018):
pKd: −log10 of the molar value. Like-named read-outs stand apart in the source and are kept apart here. Values belong to the compound of their own block, whether it stands above or below them.

Legend:
[1] = molecular target: FABP4 (Homo sapiens, UniProt P15090); experiment: FABP4 inhibition; conditions: Fig. S5
[2] = system: formalin-induced mouse models; conditions: cited from earlier work
[3] = molecular target: T1, FABP7 (Homo sapiens, UniProt O15540); experiment: Direct ligand binding assay of fluorescent probes, FABP7
[4] = Dynamic light scattering, colloidal aggregation; type: physicochemical; conditions: 20 μM in PBS, 24°C
[5] = molecular target: T2, FABP3 (Homo sapiens, UniProt P05413); experiment: Direct ligand binding assay of fluorescent probes, FABP3
[6] = molecular target: T3, FABP5 (Homo sapiens, UniProt Q01469); experiment: Direct ligand binding assay of fluorescent probes, FABP5
[7] = molecular target: T2, FABP3; conditions: read-out: Kd towards FABP3; determined in a previous study; cited from earlier work
[8] = molecular target: T3, FABP5; conditions: read-out: Kd towards FABP5; determined in a previous study; cited from earlier work
[9] = molecular target: T1, FABP7; conditions: read-out: Kd towards FABP7; determined in a previous study; cited from earlier work

Chain of FABP4 (P15090 whole entry): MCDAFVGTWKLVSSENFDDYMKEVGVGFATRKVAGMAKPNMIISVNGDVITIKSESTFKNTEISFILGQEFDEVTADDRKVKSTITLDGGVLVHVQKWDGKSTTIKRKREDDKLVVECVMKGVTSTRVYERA
T3 sequence (Q01469 whole entry): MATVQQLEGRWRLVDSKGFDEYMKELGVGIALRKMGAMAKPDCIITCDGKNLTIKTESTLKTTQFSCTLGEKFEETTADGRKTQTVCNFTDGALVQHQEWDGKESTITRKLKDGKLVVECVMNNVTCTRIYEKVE
T1 sequence (O15540 whole entry): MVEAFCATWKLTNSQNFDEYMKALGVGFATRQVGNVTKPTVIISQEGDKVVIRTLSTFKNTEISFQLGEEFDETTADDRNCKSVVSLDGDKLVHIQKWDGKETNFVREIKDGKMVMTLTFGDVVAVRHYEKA
T2 sequence (P05413 whole entry): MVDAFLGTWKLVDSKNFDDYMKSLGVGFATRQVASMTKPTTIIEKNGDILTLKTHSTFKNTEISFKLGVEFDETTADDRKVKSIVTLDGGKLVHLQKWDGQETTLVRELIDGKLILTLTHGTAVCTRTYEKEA

FABP4 inhibition [1]: do not appreciably inhibit FABP4
Structure (SMILES): COc1ccccc1[C@H]1[C@H](C(=O)O)[C@H](c2ccccc2OC)[C@H]1C(=O)Oc1cccc2ccccc12 (racemic) [Compound 4b, 1-Naphthyl α-3-hydroxycarbonyl-2,4-di(2-methoxylphenyl)cyclobutane-1-carboxylate]

FABP4 inhibition [1]: do not appreciably inhibit FABP4
Structure (SMILES): COc1ccccc1[C@H]1[C@H](C(=O)O)[C@H](c2ccccc2OC)[C@H]1C(=O)OCC1c2ccccc2-c2ccccc21 (racemic) [Compound 4j, 9-Fluorenylmethyl α-3-hydroxycarbonyl-2,4-di(2-methoxylphenyl)cyclobutane-1-carboxylate]

pKd [5]: 5.69
pKd [6]: 5.59
Structure (SMILES): CN(C)c1cccc2c(S(=O)(=O)NCCCCCCCCCCC(=O)O)cccc12 [DAUDA, 11-[5-(Dimethylamino)-1-naphthalenesulfonyl-amino]undecanoic acid]

More lines, now with the values behind:

Structure (SMILES): C#Cc1cccc(OC(=O)[C@H]2[C@@H](c3ccccc3)[C@H](C(=O)O)[C@@H]2c2ccccc2)c1 (racemic) [Compound 3f, 1-(3-Ethynylphenyl) α-3-hydroxycarbonyl-2,4-diphenylcyclobutane-1-carboxylate]
FABP4 inhibition [1]: do not appreciably inhibit FABP4

Structure (SMILES): COc1cc([C@H]2[C@H](C(=O)O[C@@H]3C[C@@H]4[C@@H](CN(C)C[C@@H]4C)[C@@H]3C)[C@H](c3ccc(O)c(OC)c3)[C@H]2C(=O)O[C@@H]2C[C@@H]3[C@@H](CN(C)C[C@@H]3C)[C@@H]2C)ccc1O [(-)-incarvillateine]
analgesic and anti-inflammatory effects [2]: potent analgesic and anti-inflammatory effects

Structure (SMILES): O=S(=O)(O)c1cccc2cccc(Nc3ccccc3)c12 [ANS, 1-Anilinonaphthalene-8-sulfonic Acid]
pKd [3]: 6.00

Structure (SMILES): O=C(O)C1C(c2ccccc2)C(C(=O)O[C@@H]2CCCC[C@H]2c2ccccc2)C1c1ccccc1 (stereo partly drawn) [Compound 3l, 1-[(1R,2S)-2-Phenylcyclohexyl] α-3-hydroxycarbonyl-2,4-diphenylcyclobutane-1-carboxylate]
colloidal aggregation by DLS [4]: no evidence of colloidal aggregation

Structure (SMILES): CCCCCCC(CCCCCCCCCCC(=O)O)N(C)c1ccc([N+](=O)[O-])c2nonc12 (centres unmarked) [NBD-stearate, 12-N-methyl-(7-nitrobenz-2-oxa-1,3-diazo)aminostearic acid]
pKd [7]: 7.74
pKd [8]: 6.80
pKd [9]: 6.66
